≈ marks a conversion by molar mass, not a printed value. Blank lines part the entries; values can stand above or below the molecule they belong to.
Tests used:
Format in all cases: physicochemical
[1] = Determination of solubility in water (HPLC of supernatant); conditions: 25° C., 15 min, 50 mg suspended in 10 mL distilled water
Procedure: After 50 mg each of samples of the crystals prepared according to the foregoing methods and the crystal of the compound (I) in its free state was suspended in 10 mL of distilled water and then each suspension was stirred at room temperature for 15 minutes, the supernatant of each suspension was collected, then passed through a disposable filter of 0.2 μm for HPLC, 1 to 3.5 g of each filtered supernatant was dispensed, the volume thereof was increased up to 10 mL with a 90% aqueous solution of acetonitrile and finally the content of the compound (I) present in the supernatant was determined according to the HPLC while using the following conditions.
(Conditions for the HPLC Analysis)
(§1) Device Used: LC-10A Series (available from Shimadzu Corporation);
(§2) Column: Inertsil (available from GL Science Company) ODS-24.5 mm×150 mm, 5 μm, 40° C.;
(§3) Flow Rate: 1 mL/min, UV at 254 nm, 10 μL Injection;
(§4) Eluting Solution A: 0.1% TFA (trifluoroacetic acid)/water;
(§5) Eluting Solution B: 0.1% TFA/MeCN;
(§6) Gradient Program: 0→25 min (B: 0→90%).

[2] = Determination of storage stability (accelerated test, HPLC); conditions: 40° C., 75% RH, 2M (two months)
Procedure: The crystal of a salt of the compound represented by the formula (I) was inspected for the storage stability, when it was stored at 40° C., 75% RH over two months, according to the following method. The results observed for preferred crystals, i.e., forms Cl1, Br1, Br2, Ms1 and Ms3 crystals, among others, are summarized in the following Table 2. The data listed in Table 2 indicate that the crystals of the compound (I) in their preferred crystalline forms according to the present invention are particularly excellent in their storage stability.
The storage stability of each sample, which had been stored in a depository at 40° C., 75% RH over two months, was determined according to the HPLC analysis method.
More specifically, about 25 mg each of the crystals of the compound represented by the formula (I) was dispensed into a 50 mL volume measuring flask and then dissolved in a 90% aqueous solution of acetonitrile containing 0.1% TFA and the storage stability of the resulting solution was determined by the HPLC analysis under the following conditions.
(Conditions for HPLC Analysis)
as §1, §2, §3, §4, §5, §6

[3] = Determination of adsorption-desorption of water vapor; conditions: isothermal water vapor adsorption-desorption, 25° C.
Procedure: The crystals of the present invention were inspected for their water vapor adsorption-desorption ability using BELLSORP-aqua3 available from Nippon Bell Co., Ltd. More specifically, about 300 mg of the compound represented by the formula (I) was dispensed into a measuring tube, dried at 50° C. for 30 minutes and the amount of water vapor adsorbed on or desorbed from the crystal was determined under the following conditions:
Adsorption Temperature: 25° C.; Equilibration Time: 500 sec; Saturated Vapor Pressure: 3.169 kPa;
Excessively Introduced Amount: 0.2 or 1.0 cm^3 (STP)/g; Tolerance for Increase or Decrease of Adsorbed Amount: 0.2 or 1.0 cm^3 (STP)/g.

- Solubility in Water ([1]; listed as Nitrate (Form N2)): 0.128 mg/mL (≈ 225 µM)
SMILES: COC(=O)[C@H](Cc1ccc(-n2c(=O)c3cc(N(C)C)ccc3n(C)c2=O)cc1)NC(=O)c1c(Cl)cccc1Cl [Form N2]

- Solubility in Water ([1]; listed as Sulfate (Form S1)): 0.104 mg/mL (≈ 183 µM)
SMILES: COC(=O)[C@H](Cc1ccc(-n2c(=O)c3cc(N(C)C)ccc3n(C)c2=O)cc1)NC(=O)c1c(Cl)cccc1Cl [Form S1]

- Solubility in Water ([1]; listed as Sulfate (Form S2)): 0.129 mg/mL (≈ 227 µM)
SMILES: COC(=O)[C@H](Cc1ccc(-n2c(=O)c3cc(N(C)C)ccc3n(C)c2=O)cc1)NC(=O)c1c(Cl)cccc1Cl [Form S2]

- Solubility in Water ([1]; listed as Sulfate (Form S3)): 0.119 mg/mL (≈ 209 µM)
SMILES: COC(=O)[C@H](Cc1ccc(-n2c(=O)c3cc(N(C)C)ccc3n(C)c2=O)cc1)NC(=O)c1c(Cl)cccc1Cl [Form S3]

- Solubility in Water ([1]; listed as Toluene-sulfonate (Form Ts1)): 0.097 mg/mL (≈ 170 µM)
SMILES: COC(=O)[C@H](Cc1ccc(-n2c(=O)c3cc(N(C)C)ccc3n(C)c2=O)cc1)NC(=O)c1c(Cl)cccc1Cl [Form Ts1]

- Solubility in Water [1]: 0.00012 mg/mL (≈ 0.211 µM)
SMILES: COC(=O)[C@H](Cc1ccc(-n2c(=O)c3cc(N(C)C)ccc3n(C)c2=O)cc1)NC(=O)c1c(Cl)cccc1Cl [Free State]

Continued, molecule first:

SMILES: COC(=O)[C@H](Cc1ccc(-n2c(=O)c3cc(N(C)C)ccc3n(C)c2=O)cc1)NC(=O)c1c(Cl)cccc1Cl [Form Br1]
- Solubility in Water ([1]; listed as HBr salt (Form Br1)): 0.12 mg/mL
- Accelerated Test, Stability: initial sample still in existence [2]: 99.05% of the initial sample was still in existence.

SMILES: COC(=O)[C@H](Cc1ccc(-n2c(=O)c3cc(N(C)C)ccc3n(C)c2=O)cc1)NC(=O)c1c(Cl)cccc1Cl [Form Br2]
- Solubility in Water ([1]; listed as HBr salt (Form Br2)): 0.123 mg/mL
- change in crystalline state at a high humidity [3]: only a very slight change in its crystalline state
- Accelerated Test, Stability: initial sample still in existence [2]: 98.13% of the initial sample was still in existence and

SMILES: COC(=O)[C@H](Cc1ccc(-n2c(=O)c3cc(N(C)C)ccc3n(C)c2=O)cc1)NC(=O)c1c(Cl)cccc1Cl [Form Cl1]
- Solubility in Water ([1]; listed as Hydrochloride (Form Cl1)): 0.122 mg/mL (≈ 214 µM)
- change in crystalline state at a high humidity [3]: only a very slight change in its crystalline state
- Accelerated Test, Stability: initial sample still in existence [2]: 99.03% of the initial sample was still in existence.

SMILES: COC(=O)[C@H](Cc1ccc(-n2c(=O)c3cc(N(C)C)ccc3n(C)c2=O)cc1)NC(=O)c1c(Cl)cccc1Cl [Form Cl2]
- Solubility in Water ([1]; listed as Hydrochloride (Form Cl2)): 0.101 mg/mL (≈ 177 µM)

SMILES: COC(=O)[C@H](Cc1ccc(-n2c(=O)c3cc(N(C)C)ccc3n(C)c2=O)cc1)NC(=O)c1c(Cl)cccc1Cl [Form Cl3]
- Solubility in Water ([1]; listed as Hydrochloride (Form Cl3)): 0.102 mg/mL (≈ 179 µM)

SMILES: COC(=O)[C@H](Cc1ccc(-n2c(=O)c3cc(N(C)C)ccc3n(C)c2=O)cc1)NC(=O)c1c(Cl)cccc1Cl [Form Cl5]
- Solubility in Water ([1]; listed as Hydrochloride (Form Cl5)): 0.091 mg/mL (≈ 160 µM)

SMILES: COC(=O)[C@H](Cc1ccc(-n2c(=O)c3cc(N(C)C)ccc3n(C)c2=O)cc1)NC(=O)c1c(Cl)cccc1Cl [Form Ms1]
- Solubility in Water ([1]; listed as Methane-sulfonate (Form Ms1)): 0.102 mg/mL (≈ 179 µM)
- change in crystalline state at a high humidity [3]: only a very slight change in its crystalline state
- Accelerated Test, Stability: initial sample still in existence [2]: 99.06% of the initial sample was still in existence.

SMILES: COC(=O)[C@H](Cc1ccc(-n2c(=O)c3cc(N(C)C)ccc3n(C)c2=O)cc1)NC(=O)c1c(Cl)cccc1Cl [Form Ms2]
- Solubility in Water ([1]; listed as Methane-sulfonate (Form Ms2)): 0.115 mg/mL (≈ 202 µM)

SMILES: COC(=O)[C@H](Cc1ccc(-n2c(=O)c3cc(N(C)C)ccc3n(C)c2=O)cc1)NC(=O)c1c(Cl)cccc1Cl [Form Ms3]
- Solubility in Water ([1]; listed as Methane-sulfonate (Form Ms3)): 0.109 mg/mL (≈ 191 µM)
- Accelerated Test, Stability: initial sample still in existence [2]: 97.41% of the initial sample was still in existence and

SMILES: COC(=O)[C@H](Cc1ccc(-n2c(=O)c3cc(N(C)C)ccc3n(C)c2=O)cc1)NC(=O)c1c(Cl)cccc1Cl [Form Ms4]
- Solubility in Water ([1]; listed as Methane-sulfonate (Form Ms4)): 0.094 mg/mL (≈ 165 µM)

SMILES: COC(=O)[C@H](Cc1ccc(-n2c(=O)c3cc(N(C)C)ccc3n(C)c2=O)cc1)NC(=O)c1c(Cl)cccc1Cl [Form N1]
- Solubility in Water ([1]; listed as Nitrate (Form N1)): 0.11 mg/mL (≈ 193 µM)

From US9102630B2, “Crystals of salts of phenylalanine derivatives” (AJINOMOTO CO., INC., priority 2010, dated 2015)
